# Results: ChEMBL document CHEMBL6177991, “Discovery of P11-2: A Potent First-in-Class MNK1-Targeting PROTAC Degrader for the Treatment of Cancer” (J Med Chem, 2025)
# Calls of active or inactive are those of the source. The calls are words filed in the database; no cut-off is given here.
# Tests used:
# [1] = AUC (0 to t) in male Sprague-Dawley rat at 5 mg/kg, ip measured up to 24 hrs by LC-MS analysis; assay type: ADME, organism-based; details: in vivo
# [2] = Hepatotoxicity in nude female NSG mouse xenografted with human MV4-11 cells assessed as change in serum TBIL level at 20 mg/kg, ip qd administrated for 16 days; assay type: toxicity, organism-based; details: in vivo, 384 h, time 16 day
# [3] = Toxicity in male ICR mouse assessed as change in serum ALT level at 100 mg/kg, ip measured after 14 days; assay type: organism-based; details: in vivo, 336 h, time 14 day
# MV4-11 [4] = experiment: Effect on MNK2 expression level in human MV4-11 cells at 300 nM incubated for 24 hrs by DIA-based quantitative proteomics analysis; assay type: functional, cell-based
# MV4-11 [5] = experiment: Upregulation of cell cycle signaling pathways related protein expression in human MV4-11 cells by KEGG analysis; assay type: functional, cell-based
# [6] = Cmax in male Sprague-Dawley rat at 20 mg/kg, po measured up to 24 hrs by LC-MS analysis; assay type: ADME, organism-based; details: in vivo
# [7] = Toxicity in nude female NSG mouse xenografted with human MV4-11 cells assessed as change in serum creatinine level at 20 mg/kg, ip qd administrated for 16 days; assay type: organism-based; details: in vivo, 384 h, time 16 day
# Mus musculus [8] = experiment: In vivo induction of MNK2 degradation in human MV4-11 cells xenografted in nude female NSG mouse at 20 mg/kg, ip qd administrated for 16 days; assay type: functional, organism-based; details: time 16.0 day
# MV4-11 [9] = experiment: Induction of MNK2 degradation in human MV4-11 cells at 10 to 1000 nM incubated for 24 hrs by immunoblot analysis; assay type: cell-based; details: dose 10-1000 nM
# MV4-11 [10] = experiment: Induction of apoptosis in human MV4-11 cells assessed as viable cells at 100 nM incubated for 24 hrs by Annexin V-FITC/PI dual staining based flow cytometric analysis (reference value: 94.9 %); assay type: functional; details: read-out: Activity
# [11] = Clearance in male Sprague-Dawley rat at 5 mg/kg, ip measured up to 24 hrs by LC-MS analysis; assay type: ADME, organism-based; details: in vivo
# [12] = Hepatotoxicity in nude female NSG mouse xenografted with human MV4-11 cells assessed as change in serum ALT level at 20 mg/kg, ip qd administrated for 16 days; assay type: toxicity, organism-based; details: in vivo, 384 h, time 16 day
# [13] = Half life in male Sprague-Dawley rat at 1 mg/kg, iv measured up to 24 hrs by LC-MS analysis; assay type: ADME, organism-based; details: in vivo
# [14] = Cmax in male Sprague-Dawley rat at 5 mg/kg, ip measured up to 24 hrs by LC-MS analysis; assay type: ADME, organism-based; details: in vivo
# MV4-11 [15] = experiment: Induction of apoptosis in human MV4-11 cells assessed as late apoptotic cells at 30 nM incubated for 24 hrs by Annexin V-FITC/PI dual staining based flow cytometric analysis (reference value: 1.48 %); assay type: functional
# MV4-11 [16] = experiment: Downregulation of SBNO2 expression level in human MV4-11 cells at 300 nM incubated for 24 hrs by DIA-based quantitative proteomics analysis; assay type: functional, cell-based
# MV4-11 [17] = experiment: Induction of cell cycle arrest in human MV4-11 cells assessed as decrease in accumulation of cells at G2 phase incubated for 24 hrs by PI staining based flow cytometric analysis; assay type: functional; details: dose 30-300 µM
# [18] = Toxicity in male ICR mouse assessed as change in serum DBIL level at 100 mg/kg, ip measured after 14 days; assay type: organism-based; details: in vivo, 336 h, time 14 day
# MV4-11 [19] = experiment: Upregulation of RNA transport pathways related protein expression in human MV4-11 cells by GO analysis; assay type: functional, cell-based
# MDA-MB-231 = experiment: Anti-proliferative activity against human MDA-MB-231 cells measured after 96 hrs by CCK8 assay; details: MDA-MB-231, 96 h
# MV4-11 [20] = experiment: Upregulation of G2/M transition pathway related protein expression in human MV4-11 cells by GO analysis; assay type: functional, cell-based
# MV4-11 [21] = experiment: Induction of apoptosis in human MV4-11 cells assessed as early apoptotic cells at 300 nM incubated for 24 hrs by Annexin V-FITC/PI dual staining based flow cytometric analysis (reference value: 3.42 %); assay type: functional
# MV4-11 [22] = experiment: Induction of apoptosis in human MV4-11 cells assessed as necrotic cells at 300 nM incubated for 24 hrs by Annexin V-FITC/PI dual staining based flow cytometric analysis (reference value: 0.16 %); assay type: functional
# [23] = Toxicity in male ICR mouse assessed as change in serum TBIL level at 100 mg/kg, ip measured after 14 days; assay type: organism-based; details: in vivo, 336 h, time 14 day
# MV4-11 [24] = experiment: Induction of apoptosis in human MV4-11 cells assessed as early apoptotic cells at 30 nM incubated for 24 hrs by Annexin V-FITC/PI dual staining based flow cytometric analysis (reference value: 3.42 %); assay type: functional
# [25] = Toxicity in male ICR mouse assessed as histopathological change in kidney at 100 mg/kg, ip measured after 14 days by hematoxylin and eosin staining based analysis; assay type: organism-based; details: in vivo, 336 h, time 14 day
# MV4-11 [26] = experiment: Upregulation of mTOR pathway related protein expression in human MV4-11 cells by KEGG analysis; assay type: functional, cell-based
# [27] = Toxicity in nude female NSG mouse xenografted with human MV4-11 cells assessed as change in serum AST level at 20 mg/kg, ip qd administrated for 16 days; assay type: organism-based; details: in vivo, 384 h, time 16 day
# MV4-11 [28] = experiment: Induction of cell cycle arrest in human MV4-11 cells assessed as decrease in accumulation of cells at S phase incubated for 24 hrs by PI staining based flow cytometric analysis; assay type: functional; details: dose 30-300 µM
# [29] = Toxicity in male ICR mouse assessed as histopathological change in heart at 100 mg/kg, ip measured after 14 days by hematoxylin and eosin staining based analysis; assay type: organism-based; details: in vivo, 336 h, time 14 day
# [30] = Hepatotoxicity in nude female NSG mouse xenografted with human MV4-11 cells assessed as change in serum ALP level at 20 mg/kg, ip qd administrated for 16 days; assay type: toxicity, organism-based; details: in vivo, 384 h, time 16 day
# MV4-11 [31] = experiment: Downregulation of C9orf40 expression level in human MV4-11 cells at 300 nM incubated for 24 hrs by DIA-based quantitative proteomics analysis; assay type: functional, cell-based
# [32] = AUC (0 to t) in male Sprague-Dawley rat at 20 mg/kg, po measured up to 24 hrs by LC-MS analysis; assay type: ADME, organism-based; details: in vivo
# [33] = Toxicity in male ICR mouse assessed as histopathological change in lung at 100 mg/kg, ip measured after 14 days by hematoxylin and eosin staining based analysis; assay type: organism-based; details: in vivo, 336 h, time 14 day
# [34] = Half life in male Sprague-Dawley rat at 20 mg/kg, po measured up to 24 hrs by LC-MS analysis; assay type: ADME, organism-based; details: in vivo
# Mus musculus [35] = experiment: In vivo PROTAC activity at CRBN/MNK1 in human MV4-11 cells xenografted in nude female NSG mouse assessed as reduction in phosphorylated eIF4E level at 20 mg/kg, ip qd administrated for 16 days by Western blot analysis; assay type: functional, organism-based; details: time 16.0 day
# MV4-11 [36] = experiment: Induction of apoptosis in human MV4-11 cells assessed as viable cells at 30 nM incubated for 24 hrs by Annexin V-FITC/PI dual staining based flow cytometric analysis (reference value: 94.9 %); assay type: functional; details: read-out: Activity
# MV4-11 [37] = experiment: Upregulation of ubiquitin-mediated proteolysis pathway related protein expression in human MV4-11 cells by KEGG analysis; assay type: functional, cell-based
# [38] = Toxicity in male ICR mouse assessed as change in serum CK-MB level at 100 mg/kg, ip measured after 14 days; assay type: organism-based; details: in vivo, 336 h, time 14 day
compound,measurement,setting,value
O=C1CCC(N2Cc3c(NC(=O)CCCCCC(=O)N4CCC(C(=O)Nc5ncc(-c6ccccc6)s5)CC4)cccc3C2=O)C(=O)N1 (centres undefined),AUC(0-t) at 24 h,[1],9630 ng·h/mL
same,Activity,[2],Non-toxic
same,Activity,[3],Non-toxic
same,Activity,MV4-11 [4],No effect
same,Activity,MV4-11 [5],Active
same,Cmax,[6],160 ng/mL
same,Activity,[7],Non-toxic
same,Activity,Mus musculus [8],inactive
same,Activity,MV4-11 [9],inactive
same,viability at 0.1 µM,MV4-11 [10],71.5%
same,CL/F,[11],8.75 mL/min/kg
same,Activity,[12],Non-toxic
same,half-life,[13],4.3 h
same,Cmax,[14],1970 ng/mL
same,Activity,MV4-11 [15],7.49%
same,Activity,MV4-11 [16],Active
same,Activity,MV4-11 [17],Dose-dependent-effect
same,Activity,[18],Non-toxic
same,Activity,MV4-11 [19],Active
same,IC50,MDA-MB-231,2060 nM
same,Activity,MV4-11 [20],Active
same,Activity,MV4-11 [21],28.6%
same,Activity,MV4-11 [22],1.36%
same,Activity,[23],Non-toxic
same,Activity,MV4-11 [24],6.46%
same,Activity,[25],Non-toxic
same,Activity,MV4-11 [26],Active
same,Activity,[27],Non-toxic
same,Activity,MV4-11 [28],Dose-dependent-effect
same,Activity,[29],Non-toxic
same,Activity,[30],Non-toxic
same,Activity,MV4-11 [31],Active
same,AUC(0-t) at 24 h,[32],2950 ng·h/mL
same,Activity,[33],Non-toxic
same,half-life,[34],7.1 h
same,Activity,Mus musculus [35],Active
same,viability at 0.03 µM,MV4-11 [36],85.8%
same,Activity,MV4-11 [37],Active
same,Activity,[38],Non-toxic
